Earlier results as cited in patent US8097283B2, “Methods and compositions for imaging” (Mount Sinai School of Medicine, priority 2004, dated 2012).
Read-outs that look alike come from different tables or passages of the source.

B1: HDL-apoAI: apoAI moiety of HDL in the circulation of a mouse (protein, UniProt Q00623 25-264, looked up)
Apolipoprotein A-I: DEPQSQWDKVKDFANVYVDAVKDSGRDYVSQFESSSLGQQLNLNLLENWDTLGSTVSQLQERLGPLTRDFWDNLEKETDWVRQEMNKDLEEVKQKVQPYLDEFQKKWKEDVELYRQKVAPLGAELQESARQKLQELQGRLSPVAEEFRDRMRTHVDSLRTQLAPHSEQMRESLAQRLAELKSNPTLNEYHTRAKTHLKTLGEKARPALEDLRHSLMPMLETLKTQVQSVIDKASETLTAQ

Experiments:
[1] = 0.5 T, 37° C.
[2] = not given; remark: listed apart in the source
[3] = mouse

Molecule	r1 [1]	further results
O=C([O-])CN1CCN(CC(=O)[O-])CCN(CC(=O)[O-])CCN(CC(=O)[O-])CC1.[Gd+3] [Gadoterate, Gd-DOTA]	3.6 mM⁻¹ s⁻¹	
Gd-HPDO3A [Gadoteridol]	3.7 mM⁻¹ s⁻¹	
Mn-DPDP [Mangafodipir]	1.9 mM⁻¹ s⁻¹	Osmolality (concentration 0.01M): 0.29 osmol/kg; Viscosity ([2]; concentration 0.01M): 0.7 cP
Gd-DTPA-BMEA [Gadoversetamide]	4.7 mM⁻¹ s⁻¹	
O=C([O-])CN1CCN(CC(=O)[O-])CCN([C@H](CO)[C@H](O)CO)CCN(CC(=O)[O-])CC1.[Gd+3] (racemic) [Gadobutrol, Gd-DO3A-butrol]	3.6 mM⁻¹ s⁻¹	
O=C([O-])CN(CCN(CC(=O)[O-])CC(=O)O)CCN(CC(=O)[O-])CC(=O)O.[Gd+3] [Gadopenetate, Gd-DTPA]	3.8 mM⁻¹ s⁻¹	Osmolality (concentration 0.5M): 1.96 osmol/kg; Viscosity ([2]; concentration 0.5M): 2.9 cP
CNC[C@H](O)[C@@H](O)[C@H](O)[C@H](O)CO.CNC[C@H](O)[C@@H](O)[C@H](O)[C@H](O)CO.O=C([O-])CN(CCN(CC(=O)[O-])CC(=O)O)CCN(CC(=O)O)C(COCc1ccccc1)C(=O)[O-].[Gd+3] (stereo not drawn) [Gadobenate, Gd-BOPTA]	4.4 mM⁻¹ s⁻¹	
B1		t1/2 in the circulation [3]: roughly 10 h
